Key:
[1] = assay type: in vitro ADME; conditions: mouse liver microsomes, without NADPH (data not shown)
[2] = In vivo PK study, single subcutaneous dose in CD2F1 mice; conditions: male, CD2F1, mouse, sc, 200 mg/kg
G-CSF production = assay: In vivo G-CSF stimulation assay; design: species or system mouse; conditions: CD2F1 mice, 200 mg/Kg subcutaneously; for G-CSF production in mice after treatment: plasma G-CSF 8-48 h

SMILES | degradation in the absence of NADPH [1] | Tmax [2] [h] | Tmax at 24 h [2] [h] | lag time before plasma G-CSF increase (G-CSF production) | time of peak plasma G-CSF concentration (G-CSF production) [h] | G-CSF production in mice after treatment (G-CSF production)
CC(C)=CCC/C(C)=C/CC/C(C)=C/CC[C@]1(C)CCc2cc(O)cc(C)c2O1 [DT3, δ-tocotrienol] | no degradation was observed | ~1 | 1 | about 6 h | 24 | significant G-CSF production
[2H]C([2H])([2H])C(=CCC/C(C)=C/CC/C(C)=C/CC[C@]1(C)CCc2cc(O)cc(C)c2O1)C([2H])([2H])[2H] [d6-DT3, (R)-2-((3E,7E)-4,8-dimethyl-12-(methyl-d3)trideca-3,7,11-trien-1-yl-13,13,13-d3)-2,8-dimethylchroman-6-ol] | no degradation was observed |  |  | about 6 h | 24 | significant G-CSF production

Reference: article PMC7433030 (Bioorganic & medicinal chemistry, 2020)
